Data reported in the supplement of paper PMC11451515.

System: SEM cells
Assay: cell viability relative to DMSO control; higher = less cytotoxic
Conditions: 48 h
In short: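 Before seeding, each leukemia line was adapted for at least four passages in each medium. NOMO1 or SEM cells (500 cells/well) and P12-Ichikawa cells (1000 cells/well) went into 1536-well plates at 5 μl, then received library compounds in DMSO by pin dosing across 11 threefold concentrations, 47 μM to 0.79 nM. Readout was CellTiter-Glo One luminescence after 48 h at 37°C, and viability is given as a per-plate percentage of DMSO wells, with cell-free wells as background.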

[1] = HPLM + 10% dialyzed FBS, 0.000781 µM
[2] = HPLM + 10% dialyzed FBS, 0.00234 µM
[3] = HPLM + 10% dialyzed FBS, 0.00702 µM
[4] = HPLM + 10% dialyzed FBS, 0.0211 µM
[5] = HPLM + 10% dialyzed FBS, 0.0632 µM
[6] = HPLM + 10% dialyzed FBS, 0.19 µM
[7] = HPLM + 10% dialyzed FBS, 0.569 µM
[8] = HPLM + 10% dialyzed FBS, 1.71 µM
[9] = HPLM + 10% dialyzed FBS, 5.12 µM
[10] = HPLM + 10% dialyzed FBS, 15.4 µM
[11] = HPLM + 10% dialyzed FBS, 46.1 µM
[12] = RPMI 5 mM glucose + 10% FBS, 0.000781 µM
[13] = RPMI 5 mM glucose + 10% FBS, 0.00234 µM
[14] = RPMI 5 mM glucose + 10% FBS, 0.00702 µM
[15] = RPMI 5 mM glucose + 10% FBS, 0.0211 µM
[16] = RPMI 5 mM glucose + 10% FBS, 0.0632 µM
[17] = RPMI 5 mM glucose + 10% FBS, 0.19 µM
[18] = RPMI 5 mM glucose + 10% FBS, 0.569 µM
[19] = RPMI 5 mM glucose + 10% FBS, 1.71 µM
[20] = RPMI 5 mM glucose + 10% FBS, 5.12 µM
[21] = RPMI 5 mM glucose + 10% FBS, 15.4 µM
[22] = RPMI 5 mM glucose + 10% FBS, 46.1 µM
[23] = RPMI 5 mM glucose + 10% dialyzed FBS, 0.000781 µM
[24] = RPMI 5 mM glucose + 10% dialyzed FBS, 0.00234 µM
[25] = RPMI 5 mM glucose + 10% dialyzed FBS, 0.00702 µM
[26] = RPMI 5 mM glucose + 10% dialyzed FBS, 0.0211 µM
[27] = RPMI 5 mM glucose + 10% dialyzed FBS, 0.0632 µM
[28] = RPMI 5 mM glucose + 10% dialyzed FBS, 0.19 µM
[29] = RPMI 5 mM glucose + 10% dialyzed FBS, 0.569 µM
[30] = RPMI 5 mM glucose + 10% dialyzed FBS, 1.71 µM
[31] = RPMI 5 mM glucose + 10% dialyzed FBS, 5.12 µM
[32] = RPMI 5 mM glucose + 10% dialyzed FBS, 15.4 µM
[33] = RPMI 5 mM glucose + 10% dialyzed FBS, 46.1 µM

SMILES | cell viability [1] [%] | cell viability [2] [%] | cell viability [3] [%] | cell viability [4] [%] | cell viability [5] [%] | cell viability [6] [%] | cell viability [7] [%] | cell viability [8] [%] | cell viability [9] [%] | cell viability [10] [%] | cell viability [11] [%] | cell viability [12] [%] | cell viability [13] [%] | cell viability [14] [%] | cell viability [15] [%] | cell viability [16] [%] | cell viability [17] [%] | cell viability [18] [%] | cell viability [19] [%] | cell viability [20] [%] | cell viability [21] [%] | cell viability [22] [%] | cell viability [23] [%] | cell viability [24] [%] | cell viability [25] [%] | cell viability [26] [%] | cell viability [27] [%] | cell viability [28] [%] | cell viability [29] [%] | cell viability [30] [%] | cell viability [31] [%] | cell viability [32] [%] | cell viability [33] [%]
COc1ccc(CC2NCCc3cc(OC)c(OC)cc32)cc1OC (stereo unspecified) | 89.6 | 93 | 86.6 | 85.3 | 65.7 | 94.2 | 93.3 | 93.7 | 88.4 | 79.5 | 15.4 | 85.2 | 84 | 82.2 | 97.4 | 82.4 | 99.1 | 88.5 | 93.5 | 97.5 | 47 | 12.8 | 85.9 | 78.6 | 90.7 | 87.3 | 71.4 | 98.2 | 105 | 99.9 | 95.2 | 66.8 | 19.3
Cc1c(CCOc2ccc(C(=O)O)cc2)c2cc(Cl)ccc2n1C(c1ccccc1)c1ccccc1 | 112 | 118 | 104 | 113 | 109 | 105 | 108 | 114 | 105 | 108 | 79.3 | 110 | 108 | 104 | 118 | 94.3 | 104 | 94.9 | 102 | 106 | 106 | 92.7 | 114 | 110 | 97.1 | 109 | 95.9 | 109 | 111 | 104 | 107 | 95.3 | 92.5
COC1=CC=CC2=C1C(=NC(=N2)C3=CC=CS3)NN4C(=O)\C=C(C)/C4=O | 86.8 | 96.3 | 101 | 87.5 | 72.4 | 69.1 | 42.5 | 29.7 | 11.3 | 2.5 | 2.94 | 90.3 | 99 | 93.5 | 92.2 | 81.9 | 75.5 | 59.5 | 36 | 5.68 | 1.13 | 2.39 | 87.3 | 87.2 | 88.5 | 78.1 | 76.3 | 83.1 | 57.4 | 41.3 | 5.19 | 1.14 | 2.21
CCC(C)SSc1ncc[nH]1 (stereo unspecified) | 87.4 | 90.2 | 107 | 101 | 91 | 97.5 | 89 | 36.2 | 81.9 | 57.8 | 7.14 | 93.9 | 91.5 | 88.7 | 102 | 92.7 | 109 | 93.8 | 17.7 | 82.9 | 29.9 | 6.98 | 85.7 | 75.8 | 83.2 | 83.9 | 89.8 | 108 | 78.8 | 27.2 | 73.6 | 10.3 | 6.57
COc1cc2nc(N(C)CCCNC(=O)C3CCCO3)nc(N)c2cc1OC (stereo unspecified) | 53.9 | 66.5 | 58.9 | 80.3 | 84.7 | 84.9 | 75.5 | 89.3 | 74.2 | 79.2 | 73.3 | 60.7 | 61.4 | 64.1 | 71.7 | 87.1 | 102 | 82.9 | 75.3 | 73.4 | 76.4 | 62.2 | 69.7 | 67.7 | 69.5 | 97.7 | 89 | 93.7 | 74.1 | 87.3 | 75 | 77.4 | 67.2
O=C(NOCC(O)CO)c1cc(Br)c(F)c(F)c1Nc1ccc(I)cc1F (stereo unspecified) | 66.2 | 76.3 | 73 | 78.6 | 77.2 | 83 | 80.4 | 62.4 | 46.3 | 60.7 | 44.1 | 63.8 | 92 | 76.8 | 90.1 | 94.4 | 80.3 | 70.8 | 69.3 | 52.7 | 45.7 | 37 | 73.3 | 95.8 | 67.4 | 83.1 | 81.6 | 67.5 | 54.1 | 61.1 | 39 | 37.1 | 42.1
O=C(OC)[C@]12CC[C@@]3(C)[C@]4(C)CC[C@H]5[C@@](C)(C)C(=O)C(=C[C@]5(C)C4=CC(=O)[C@@H]3[C@@H]2C[C@](C)(C)CC1)C#N | 92.6 | 83.3 | 100 | 101 | 104 | 99.7 | 98.1 | 107 | 81 | 3.9 | 4.06 | 101 | 91.8 | 112 | 94.6 | 110 | 97.4 | 101 | 99.7 | 109 | 3.61 | 4.26 | 82 | 87.2 | 90.8 | 92.6 | 109 | 102 | 103 | 77.4 | 73.6 | 3.1 | 3.38
Cc1c(CN2CCN(C(=O)[C@H](C)O)CC2)sc2c(N3CCOCC3)nc(-c3cnc(N)nc3)nc12 | 98 | 63.4 | 78.2 | 79 | 70.5 | 67.7 | 55.4 | 38.5 | 35.8 | 36.1 | 31.3 | 96.8 | 70 | 95.4 | 80.9 | 84.6 | 80.1 | 56.3 | 34.3 | 34.3 | 36.8 | 27.3 | 90.4 | 54.8 | 87.4 | 82.4 | 67 | 78.6 | 48.2 | 41.3 | 36.6 | 34.6 | 30.5
CC(=O)Nc1ccc(OC[C@](C)(O)C(=O)Nc2ccc([N+](=O)[O-])c(C(F)(F)F)c2)cc1 | 67.5 | 59.4 | 69 | 75.9 | 68.9 | 72.8 | 77.1 | 84 | 83.4 | 82.3 | 54.8 | 81.6 | 78.3 | 77.8 | 103 | 80.8 | 80.2 | 88.8 | 90.4 | 81.8 | 93.7 | 44.7 | 79.9 | 79 | 84.8 | 108 | 86.7 | 97.5 | 88.7 | 93.8 | 71 | 91.7 | 48
CCC[C@H](NC(=O)/C(C#N)=C/c1cccc(Br)n1)c1ccccc1 | 121 | 125 | 119 | 26.5 | 124 | 117 | 111 | 124 | 120 | 98.6 | 6.55 | 94.4 | 110 | 104 | 17.6 | 112 | 111 | 102 | 113 | 111 | 57.1 | 7.49 | – | – | – | – | – | – | – | – | – | – | –
O=C([O-])C(O)Cc1ccc(O)c(O)c1 (stereo unspecified) | 93.4 | 111 | 93.6 | 95.6 | 96 | 81.2 | 79.2 | 76.4 | 71.2 | 74.2 | 55 | 102 | 111 | 105 | 96.8 | 107 | 96.3 | 87.3 | 76.2 | 88.5 | 75.7 | 53.4 | 93.7 | 109 | 101 | 96 | 79.8 | 96.3 | 69 | 76.8 | 60.4 | 74.5 | 50.4
COc1cc2c(cc1-c1c(C)noc1C)ncc1[nH]c(=O)n([C@H](C)c3ccccn3)c12 | – | – | – | – | – | – | – | – | – | – | – | 117 | 106 | 140 | 120 | 119 | 114 | 102 | 65.4 | 8.34 | 6.3 | 3.15 | 101 | 94.8 | 110 | 119 | 101 | 96.1 | 76.5 | 49.7 | 6.42 | 6.4 | 3.1
Nc1ccccc1NC(=O)c1ccc(CNC(=O)OCc2cccnc2)cc1 | 109 | 120 | 120 | 111 | 118 | 119 | 87.2 | 21.2 | 8.14 | 7.22 | 5.16 | 109 | 117 | 136 | 125 | 132 | 120 | 89.3 | 12.2 | 7.97 | 6.97 | 4.6 | 94.3 | 105 | 99.8 | 114 | 124 | 104 | 76.3 | 13 | 8.44 | 7.8 | 5.76
N=C(CCSCc1csc(N=C(N)N)n1)N[S+](N)(=O)[O-] | 85.8 | 82.3 | 96.9 | 82.6 | 94.5 | 99 | 109 | 98.5 | 106 | 96.1 | 92.6 | 89.9 | 87.6 | 103 | 88 | 91.8 | 102 | 99.4 | 96.5 | 100 | 105 | 92.2 | 80.5 | 80.4 | 107 | 82.2 | 89 | 93.6 | 96.1 | 103 | 107 | 92.6 | 116
OC1=CC=C(C=C1)\C2=C\OC3=C(C=CC(=C3)O)C2=O | 102 | 96.6 | 103 | 109 | 114 | 102 | 104 | 102 | 108 | 101 | 94.5 | 100 | 89.9 | 109 | 104 | 107 | 96.5 | 99.4 | 104 | 112 | 96.7 | 104 | 96.7 | 97.1 | 109 | 118 | 101 | 101 | 107 | 112 | 110 | 101 | 104
CCCCCCCCCCCCCCCCCCCCCCO | 104 | 95 | 119 | 116 | 110 | 110 | 111 | 127 | 87.8 | 123 | 132 | 122 | 113 | 135 | 133 | 129 | 146 | 153 | 156 | 98.4 | 138 | 155 | 102 | 98.1 | 120 | 123 | 118 | 115 | 118 | 132 | 87 | 116 | 138
